Measurements taken from PubChem BioAssay AID1918932 (Molecular Pharmacology Branch, DTP, NCI, 2023).

Test system: 171881-019-R-J1-PDC complex spheroid viability
Assay: Anticancer human tumor 171881-019-R-J1-PDC patient-derived invasive breast carcinoma cell line growth inhibition
Conditions: for IC50: curve of first compound; for viability, T/C: stronger effect = lower value
In short: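 Multicellular complex spheroids of tumor cells with human endothelial cells (HUVEC) and mesenchymal stem cells; the LSD1 inhibitor iadademstat was combined with standard-of-care or investigational agents. Top concentration at or near clinical Cmax, half-log dilutions; final DMSO ≤0.25%.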

[1] = second compound 0.1 µM, first compound 0.0316 µM
[2] = second compound 0.1 µM, first compound 0.1 µM
[3] = second compound 0.1 µM, first compound 0.316 µM
[4] = second compound 0.1 µM, first compound 1 µM
[5] = second compound 0.1 µM, first compound 3.16 µM
[6] = second compound 0.1 µM, first compound 10 µM
[7] = second compound 0.316 µM, first compound 0.0316 µM
[8] = second compound 0.316 µM, first compound 0.1 µM
[9] = second compound 0.316 µM, first compound 0.316 µM
[10] = second compound 0.316 µM, first compound 1 µM
[11] = second compound 0.316 µM, first compound 3.16 µM
[12] = second compound 0.316 µM, first compound 10 µM
[13] = second compound 1 µM, first compound 0.0316 µM
[14] = second compound 1 µM, first compound 0.1 µM
[15] = second compound 1 µM, first compound 0.316 µM
[16] = second compound 1 µM, first compound 1 µM
[17] = second compound 1 µM, first compound 3.16 µM
[18] = second compound 1 µM, first compound 10 µM
[19] = second compound 3.16 µM, first compound 0.0316 µM
[20] = second compound 3.16 µM, first compound 0.1 µM
[21] = second compound 3.16 µM, first compound 0.316 µM
[22] = second compound 3.16 µM, first compound 1 µM
[23] = second compound 3.16 µM, first compound 3.16 µM
[24] = second compound 3.16 µM, first compound 10 µM
[25] = second compound 10 µM, first compound 0.0316 µM
[26] = second compound 10 µM, first compound 0.1 µM
[27] = second compound 10 µM, first compound 0.316 µM
[28] = second compound 10 µM, first compound 1 µM
[29] = second compound 10 µM, first compound 3.16 µM
[30] = second compound 10 µM, first compound 10 µM
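Further: spheroids exposed to agents for 7 days after 3 days growth.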

SMILES	IC50 (second compound 0.1 µM)	IC50 (second compound 0.316 µM)	IC50 (second compound 1 µM)	IC50 (second compound 3.16 µM)	IC50 (second compound 10 µM)	viability, T/C [1]	viability, T/C [2]	viability, T/C [3]	viability, T/C [4]	viability, T/C [5]	viability, T/C [6]	viability, T/C [7]	viability, T/C [8]	viability, T/C [9]	viability, T/C [10]	viability, T/C [11]	viability, T/C [12]	viability, T/C [13]	viability, T/C [14]	viability, T/C [15]	other results
CC1(C)CCC(CN2CCN(c3ccc(C(=O)NS(=O)(=O)c4ccc(NCC5CCOCC5)c([N+](=O)[O-])c4)c(Oc4cnc5[nH]ccc5c4)c3)CC2)=C(c2ccc(Cl)cc2)C1 + NC1CCC(NC2CC2c2ccccc2)CC1	2210 nM	2300 nM	2110 nM	1720 nM	2010 nM	71.9%	92.7%	68.4%	67.2%	42.7%	2.57%	79.3%	83.8%	68.4%	66.9%	44.4%	2.71%	88.7%	89.3%	73.8%	viability, T/C [16]: 74.3%; viability, T/C [17]: 37.9%; viability, T/C [18]: 7.6%; viability, T/C [19]: 79.6%; viability, T/C [20]: 74.9%; viability, T/C [21]: 78.7%; viability, T/C [22]: 61.4%; viability, T/C [23]: 35.7%; viability, T/C [24]: 3.1%; viability, T/C [25]: 91.3%; viability, T/C [26]: 95.5%; viability, T/C [27]: 76%; viability, T/C [28]: 67.5%; viability, T/C [29]: 39.5%; viability, T/C [30]: 2.78%
CC1COCCN1c1cc(C2(S(C)(=N)=O)CC2)nc(-c2ccnc3[nH]ccc23)n1 (stereo not given) + NC1CCC(NC2CC2c2ccccc2)CC1	1680 nM	1840 nM	1780 nM	1830 nM	2050 nM	85.4%	85%	96.4%	73.3%	20.8%	9.16%	85.1%	84.2%	94.5%	81.7%	21.7%	9.42%	88.8%	85.4%	87%	viability, T/C [16]: 76.2%; viability, T/C [17]: 23.7%; viability, T/C [18]: 9.58%; viability, T/C [19]: 88.8%; viability, T/C [20]: 83%; viability, T/C [21]: 86.1%; viability, T/C [22]: 78.7%; viability, T/C [23]: 24.2%; viability, T/C [24]: 11.3%; viability, T/C [25]: 81.8%; viability, T/C [26]: 105%; viability, T/C [27]: 84.7%; viability, T/C [28]: 84.2%; viability, T/C [29]: 29.4%; viability, T/C [30]: 9.99%
